From publication PMC10454728, “A Comparative Study on the Lysosomal Cation Channel TMEM175 Using Automated Whole-Cell Patch-Clamp, Lysosomal Patch-Clamp, and Solid Supported Membrane-Based Electrophysiology: Functional Characterization and High-Throughput Screening Assay Development” (International Journal of Molecular Sciences, 2023)
Where “and” joins values, the source holds several entries; their conditions need not be identical. Identical values can stand only once. Entries after “also recorded” stand apart in the source; their conditions may differ. Like-named read-outs stand apart in the source and are kept apart here. Blank lines part the entries; values can stand above or below the compound they belong to.

Legend:
[1] = system: control lysosomes purified from HEK293 cells expressing endogenous TMEM175; test: SSME off-target compound effects on control lysosomes (SURFE2R N1)
TMEM175 [2] = biological target: T1, TMEM175 (Homo sapiens, UniProt Q9BSA9); test: SSME K+ flux compound assay on purified lysosomes overexpressing TMEM175 (SURFE2R 96SE); format: biochemical
T1 sequence (Q9BSA9 1-504): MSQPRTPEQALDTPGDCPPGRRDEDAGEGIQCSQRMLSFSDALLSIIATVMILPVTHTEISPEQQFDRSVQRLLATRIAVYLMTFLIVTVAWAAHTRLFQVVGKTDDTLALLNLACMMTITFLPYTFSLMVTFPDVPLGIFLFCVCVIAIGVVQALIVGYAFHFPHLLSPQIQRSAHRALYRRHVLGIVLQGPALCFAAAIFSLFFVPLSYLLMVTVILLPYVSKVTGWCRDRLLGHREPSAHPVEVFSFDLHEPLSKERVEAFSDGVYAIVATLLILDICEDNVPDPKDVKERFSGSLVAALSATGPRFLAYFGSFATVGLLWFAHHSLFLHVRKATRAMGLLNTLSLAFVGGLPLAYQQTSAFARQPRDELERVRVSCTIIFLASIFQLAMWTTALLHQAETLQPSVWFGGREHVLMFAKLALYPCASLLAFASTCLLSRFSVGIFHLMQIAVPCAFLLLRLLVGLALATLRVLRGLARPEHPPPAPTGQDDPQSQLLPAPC
Protocol: In brief, compound measurements using SSME are performed in a three-step process (Figure 6B). First, TMEM175-mediated K^+ translocation is measured through 50 mM K^+ concentration jumps. This represents the baseline current of TMEM175 activity (I0). […] Third, the activation through a 50 mM K^+ concentration jump is repeated, this time in the presence of the compound to record the modulated TMEM175 current (I). In this process, each individual sensor of the 96-well sensor plate is only exposed to a single concentration of the compound. The relative current amplitude I/I0 is used as a measure of the compound effect and averaged across sensors.
We applied 50 mM K^+ concentration jumps in the absence and presence of different compound concentrations to derive information about compound effects on K^+ flux through TMEM175; (B) Time dependence of recorded peak current amplitudes for the complete workflow, which involves multiple sequential measurements. […] The recording of each sensor well starts with the application of a control measurement, rinsing non-activating solution across the sensor (baseline recording). Afterwards, we performed three solution exchange measurements from 50 mM NaCl to 50 mM KCl to measure K^+ flux through TMEM175 (baseline TMEM175 current, I0). We then rinsed the sensor with non-activating solution containing the compound at a given concentration, followed by incubation of 15 min to equilibrate the sensors with the compound. Subsequently, the solution exchange from 50 mM NaCl to 50 mM KCl is repeated twice, but in the presence of the given compound concentration to determine the modulated peak current I. Afterwards, we repeated the measurement in the absence of the compound three times (wash-out) to recover the non-modulated TMEM175 current. We subtracted the average artifact current recorded with control lysosomes from I and I0 (Figure 1K), without considering off-target effects of the tested compound. […] Success rates were determined based on the QC criteria provided in the Methods section. […] We determined average values, AVGpos and AVGneg, and standard deviations, SDpos and SDneg, of the recorded peak currents. […] Error bars represent the SEM obtained from automated data analysis using DataControl96, based on variations of the currents obtained with the TMEM175 sample. Each compound concentration was recorded with at least N = 8 sensors. […] Imin was always fixed to 0 for inhibitors or 1 for enhancers, as indicated. […] A total of 50 µL of 0.1 mM octadecanethiol in isopropanol was added to each sensor well, following incubation for 30 min at room temperature to form an alkanethiol monolayer on the sensor surface. Subsequently, the sensors were washed twice with isopropanol and three times with ddH2O, before dry-tapping on a tissue. The subsequent process of sensor coating with lipid and lysosomes was carried out manually for the SURFE^2R N1 and automated with the SURFE^2R 96SE serving as a pipetting robot. In both cases, 1.5 µL of 7.5 mg/mL 1,2-diphytanoyl-sn-glycero-3-phosphocholine (DPhPC) in n-decane was added to the center of the circular gold surface, followed by the addition of 50 µL of non-activating solution to form the SSM. The composition of the non-activating solution was adjusted for each experiment (Table 2). […] SSM-coated 96-well sensor plates were stored at −80 °C before use.

TMEM175 [3] = settings: cited from earlier work; for IC50: read-out: IC50, literature
TMEM175 [4] = biological target: T1, TMEM175; test: Whole-cell automated patch-clamp (APC) Cs+ flux assay, SyncroPatch 384i, HEK293 overexpressing TMEM175; format: cell-based
Protocol: To validate the APC assay, we compared currents between TMEM175-overexpressing cells and control HEK293 UT cells. […] In our compound application protocol, which was used to evaluate compound potencies, we consistently administered tool compounds to assess their impact on TMEM175 activity (Figure 7C).
The voltage protocol generation and data collection were performed with PatchControl384 v1.9.0 and analyzed with DataControl384 v2.2.0. A multi-hole, medium resistance chip with four patch-clamp holes per well was used for recording.
DMSO remained constant at 0.2% and BSA at 0.05% in the external solution throughout the assay, if not stated otherwise.
The voltage protocol applied for the investigation of the tool compounds (Figure 7) consisted of a 500 ms ramp from −80 mV to +80 mV, followed by a 400 ms step from −80 mV to +80 mV before returning to the holding potential of 0 mV (Figure 7B). The maximum outward current amplitude obtained at +80 mV from the ramp section was used for analysis. To investigate the blinded test compounds (Figure 8), an alternative voltage protocol was applied. […] The maximum outward current amplitude obtained at 0 mV from the voltage step section was used for analysis. In both voltage protocols, voltage sweeps were repeated every 10 s and currents sampled at 10 kHz.
The application protocol for agonists consisted of two additions of extracellular physiological solution for a minimum of 3 min, followed by the external application of the test compound for a minimum of 2 min (Figure 7C).
Currents recorded after compound addition were normalized to the baseline current before compound addition, averaged, and plotted over the compound concentration to determine the EC50 and IC50 values.

[5] = Table 4 fit, currents normalized to current before compound
[6] = from dose-response fit, Figure 8

SMILES: Nc1ccncc1 [4-AP, 4-aminopyridine]
- Off-target signal potentiation on control lysosomes ([1]; 10 mM 4-AP): +380 pA
- Artifact current of control lysosomes in presence of compound ([1]; 10 mM 4-AP, 50 mM K+ jump): −0.69 ± 0.37 nA
- Off-target effect compared to effect on TMEM175 lysosomes ([1]; 10 mM 4-AP, opposite direction): ~ 8%
- Effect on current of control lysosomes, H+ influx (pH jump) ([1]; 10 mM 4-AP, ΔpH 3.0): did not affect
- Effect of 10 mM compound on TMEM175 K+ current, SSME (TMEM175 [2]; 50 mM K+ jump): full block
- Signal block, APC (TMEM175 [4]; 1 mM 4-AP, over 125 plates): 73 ± 14%

SMILES: CCCCC1(C2CCCC2)Cc2cc(OCCCC(=O)O)c(Cl)c(Cl)c2C1=O (stereo not drawn) [DCPIB]
- Control current in presence of compound ([1]; 20 µM DCPIB): +0.69 ± 0.41 nA
- Off-target effect compared to effect on TMEM175 lysosomes ([1]; 20 µM DCPIB): ~ 35%
- EC50 (TMEM175 [2]; tool enhancers, K+ flux, 50 mM K+ jump, pH 7.6, 0 mV, artifact-corrected, read-out: Half saturation (EC50), SSME): 9.6 µM
- Increase in K+ flux through TMEM175, literature (TMEM175 [3]; 50 µM, +80 mV, ref [6]): eight-fold
- EC50 (TMEM175 [4]): 16.7 µM

- n (Hill coefficient), SSME (TMEM175 [2]; Table 4 fit): 0.89 ± 0.6
- Imax − Imin (nA), SSME (TMEM175 [2]; [5]): 0.09 ± 0.04 ^1 nA
- Potentiation, SSME (TMEM175 [2]; [6]): 9 ± 4%
- n (Hill coefficient), APC (TMEM175 [4]; Table 4 fit): 1.17 ± 0.38
- Imax − Imin (nA), APC (TMEM175 [4]; [5]): 2.45 ± 1.02 nA
- Current potentiation, APC (TMEM175 [4]; [6]): 245 ± 102% and 345 ± 102%
- EC50 (TMEM175 [4]; test-compound voltage protocol, outward current at 0 mV, not corrected for off-target effects, read-out: EC50 (µM), APC): 62 µM and 61.8 µM
SMILES: CCOC(=O)C1=C(N)Oc2ccc(Cl)cc2C1C(C#N)C(=O)OCC (stereo not drawn) [SC-79]
- Control current in presence of compound ([1]; 30 µM SC-79): −0.64 ± 0.27 nA
- Increase in TMEM175-mediated K+ flux, literature (TMEM175 [3]; 10 µM, +80 mV, ref [48]): two-fold
- Effect on TMEM175 in whole-cell patch-clamp, literature (TMEM175 [3]; ref [6]): did not find any effect

- Effect of 10 mM compound on TMEM175 K+ current, SSME (TMEM175 [2]; 50 mM K+ jump): full block
- IC50 in SSME relative to literature value (higher) (TMEM175 [2]; 4-AP vs largest literature value for K+ flux, zinc vs literature value): 50 fold
- IC50 (TMEM175 [2]; K+ flux, 50 mM K+ jump, pH 7.6, 0 mV, external (cytosolic side) application, artifact-corrected, read-out: Half saturation (IC50), SSME): 1530 µM
- Relative current, SSME (TMEM175 [2]; at 10 mM (highest concentration), relative to TMEM175 baseline current (100%)): 19.2 ± 4.6% (10 mM)
- Signal enhancement, APC (TMEM175 [4]; 0.5 mM ZnCl2, over 125 plates): 301 ± 94%
- Relative current, APC (TMEM175 [4]; enhancers, (50 µM), relative to baseline current (100%)): 400 ± 40% (50 µM)
- EC50 (TMEM175 [4]; tool compounds, Cs+ flux, outward current at +80 mV, 0.05% BSA, read-out: Half saturation (EC50), APC): 102 µM
SMILES: [Cl-].[Cl-].[Zn+2] [Zn, ZnCl2]
- Off-target effect on control lysosomes ([1]; zinc, two highest concentrations): off-target inhibition
- IC50 (TMEM175 [3]; whole-organelle patch-clamp, ref [1]): 38 ± 13 µM
- Effect of raising zinc up to 10 mM, APC (TMEM175 [4]; 0.5 mM to 10 mM, listed as zinc): could not find any changes; also recorded: without further impacting the recorded currents
